The values that follow come from US5565566A (Discovery Therapeutics, Inc., priority 1995, dated 1996).

Molecules are shown by their SMILES. Structures can show the parent of a compound that is named as a salt. Where only a bound is given, the exact number is not on record here.

This test has as its target T1, rat cortical A1 receptors (Rattus norvegicus, UniProt P25099).
T1 construct: rat cortical membranes were the receptor source; from tissue; host or cells: rat cerebral cortex (male Sprague Dawley) membranes
T1 sequence (P25099 1-326): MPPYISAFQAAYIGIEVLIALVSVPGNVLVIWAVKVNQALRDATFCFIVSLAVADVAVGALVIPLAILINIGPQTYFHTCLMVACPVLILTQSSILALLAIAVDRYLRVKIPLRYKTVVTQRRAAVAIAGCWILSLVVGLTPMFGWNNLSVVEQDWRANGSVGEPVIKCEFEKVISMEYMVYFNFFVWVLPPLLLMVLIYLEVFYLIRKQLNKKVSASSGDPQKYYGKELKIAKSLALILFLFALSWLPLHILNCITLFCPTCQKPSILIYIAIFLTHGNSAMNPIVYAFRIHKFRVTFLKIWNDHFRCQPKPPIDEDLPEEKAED
Put plainly: displacement of [3H]-CHA from rat cortical A1 receptors. In kind it is binding. To be noted: [3H]-CHA; rat cortical A1 receptors; read-out: Rat Cortical Binding Constant Ki. The method, then: Varying concentrations of test compounds were incubated with the appropriate radioligand and membrane source for 1 hr at room temperature.
Assays were terminated by filtration over Whatman GF/B filters that had been pre-soaked with 0.1% polyethyleneimine using a 24 port Brandell cell havester. The filters were washed three times with 3 ml of ice cold buffer and transfered to plastic scintillation vials to which 4 ml of Beckman Ready protein scintillation cocktail was added. The tubes were shaken and counted in a Beckman 3801 scintillation counter that converted cpm to dpm.
Data were analyzed by utilizing the Ligand, commercial computer program (Munson and Rodbard, 1980).
Male Sprague Dawley rats were killed by decapitation and the brains removed. The cerebral cortices were homogenized in 50 mm Tris; 2mm MgCl2 (pH 7.4), and centrifuged at 40,000×g for 10 minutes. […] The homogenate was centrifuged, washed once, resuspended to a protein concentration of 5-10 mg/ml and frozen at -70° C. until use.
For orientation: Loss of bound radioactivity is the signal in a displacement assay; it reports binding, not function.

The Ki is a dissociation constant, usually derived from enzyme kinetics or from competition with a known ligand. With `Cn1c(N)nc2c(N[C@H]3C[C@H]4CC[C@@H]3C4)ncnc21` (relative stereo) [compound 1005, N^6-(endo-2-norbornyl)-8-amino-9-MA], the inhibition constant (Ki) stood at 870 nM.
Under `C[C@@H](Nc1ncnc2c1ncn2C)c1ccccc1` [compound 0984, N^6 -R-1-phenyl-1-ethyl-9-MA] stands > 10000 nM; under `Cn1cnc2c(N[C@H]3C[C@H]4CC[C@@H]3C4)nc(O)nc21` (relative stereo) [compound 1063, N^6-(Endo-2-norbornyl)-2-oxo-9-MA], 1120 nM.
As for `Cn1c(=O)[nH]c2c(N[C@H]3C[C@H]4CC[C@@H]3C4)ncnc21` (relative stereo) [compound 1001, N^6-(endo-2-norbornyl)-8-oxo-9-MA], the figure is ~10000 nM.
As for `Cn1c(Cl)nc2c(N[C@H]3C[C@H]4CC[C@@H]3C4)ncnc21` (relative stereo) [compound 1061, N^6-(endo-2-norbornyl)-8-chloro-9-MA], the figure is 15 nM; as for `Cn1c(S)nc2c(N[C@H]3C[C@H]4CC[C@@H]3C4)ncnc21` (relative stereo) [compound 1060, N^6-(endo-2-norbornyl)-8-thio-9-MA], 370 nM.
Take `Cn1c(Br)nc2c(N[C@H]3C[C@H]4CC[C@@H]3C4)ncnc21` (relative stereo) [compound 1003, N^6-(endo-2-norbornyl)-8-bromo-9-MA]: the Ki was found to be 13 nM.
As to `CCCC(Nc1ncnc2c1ncn2C)C(=O)O` (stereo not drawn) [compound 1004, N^6-1-carboxy-1-butyl-9-MA], the Ki is > 100000 nM.
As for `C[C@H](Nc1ncnc2c1ncn2C)c1ccccc1` [compound 0985, N^6 -S-1-phenyl-1-ethyl-9-MA], the figure is > 100000 nM.
Turning to `Cn1c(C2CCCC2)nc2c(N[C@H]3C[C@H]4CC[C@@H]3C4)ncnc21` (relative stereo) [compound 0964, N^6-(endo-2-norbornyl)-8-cyclopentyl-9-MA], the Ki was found to be 240 nM.
In the case of `Cn1cnc2c(Nc3cccs3)ncnc21` [compound 0987, N6 2-thienyl-9-MA], the Ki is > 100000 nM.
As for `Cn1cnc2c(NCCN)ncnc21` [compound 0982, N^6-2-Aminoethyl-9-MA], the figure is > 10000 nM; as for `Cn1cnc2c(N[C@H]3C[C@H]4CC[C@@H]3C4)nc(Cl)nc21` (relative stereo) [compound 0913, N^6-(endo-2-norbornyl)-2-chloro-9-MA], 105 nM.
For the compound `Cn1c(NC2CCCC2)nc2c(N[C@H]3C[C@H]4CC[C@@H]3C4)ncnc21` (relative stereo) [compound 1064, N^6-(endo-2-norbornyl)-8-cyclopentylamine-9-MA], the Ki came out at 1900 nM.
As for `Cn1c(C2CCCC2)nc2c(NC3CCCC3)ncnc21` [compound 0965, N^6-cyclopentyl-8-cyclopentyl-9-MA], the Ki turned out to be 141 nM.
Consider `Cn1cnc2c(NCCc3c[nH]c4ccccc34)ncnc21` [compound 0989, N^6-2-(3-ethylindole)-9-MA], for which the Ki is > 10000 nM.
Under `CN(C)CCNc1ncnc2c1ncn2C` [compound 0983, N^6-(2,2-N-dimethylethyl)-9-MA] stands > 10000 nM; under `Cn1c(S(=O)(=O)O)nc2c(N[C@H]3C[C@H]4CC[C@@H]3C4)ncnc21` (relative stereo) [compound 1062, N^6-(endo-2-norbornyl)-8-sulfonate-9-MA sodium salt], > 100000 nM.
Under `Cn1c(C(=O)O)nc2c(N[C@H]3C[C@H]4CC[C@@H]3C4)ncnc21` (relative stereo) [compound 1006, N^6-(endo-2-norbornyl)-8-carboxy-9-MA Sodium Salt] stands > 10000 nM.
Take `Cn1cnc2c(NCCc3ccccc3Cl)ncnc21` [compound 0967, N^6-2(2-chlorophenylethyl)9-MA]: the Ki is > 10000 nM.
Under `OCCOCn1cnc2c(N[C@H]3C[C@H]4CC[C@@H]3C4)ncnc21` (relative stereo) [compound 1059, N^6-(endo-2-norbornyl)-9-[(2-hydroxyethoxy)methyl]adenine] stands 490 nM.
